Consider six compounds from PMC8388802, “Study on the Structure-Activity Relationship of an Antimicrobial Peptide, Brevinin-2GUb, from the Skin Secretion of Hylarana guentheri” (Antibiotics, 2021).

Values after ≈ are worked out from the molar mass of the structure shown. Where a SMILES comes first, the peptide text is derived from it.

Test [1] deals with K. pneumoniae (ATCC BAA-1705). It counts as cell-based, Klebsiella pneumoniae. The method, then: (§1) The method of antimicrobial assay is based on the Methods for Dilution Antimicrobial Susceptibility Tests for Bacteria that Grow Aerobically from the Clinical and Laboratory Standards Institute (CLSI).The antimicrobial activities of peptides were evaluated against Gram-positive bacteria S. aureus (ATCC 6538), MRSA (NCTC 12493), E. faecalis (NCTC 12493), Gram-negative bacteria E. coli (ATCC CRM 8739), K. pneumoniae (ATCC 43816), P. aeruginosa (ATCC CRM 9027), yeast C. albicans (ATCC CRM 10231) and clinical isolates MRSA (B042 V2E1 A), E. coli (ATCC BAA-2340), K. pneumoniae (ATCC BAA-1705), P. aeruginosa (B004 V2S2 B).
(§2) At the first stage of the assay, 20 μL bacteria were cultured in 100 mL Mueller Hinton Broth (MHB) or Yeast Extract–Peptone–Dextrose broth (YPD-B), respectively, and was incubated overnight. Then, microorganisms were subcultured in 20 mL fresh MHB or YPD-B to achieve cultures in the logarithmic phase (1 × 10^8 CFU/mL), which can be verified by optical density (OD) (The OD of Gram-positive bacteria is 0.23, OD of Gram-negative bacteria is 0.4, and OD of yeast is 0.15), and viable cell counts. Then, the medium was used to dilute the cultures to specific cell densities (Gram-negative and Gram-positive bacteria: 5 × 10^5 CFU/mL; yeast: 1 × 10^6 CFU/mL), which were the final concentrations of bacterial suspensions used in the assay. The peptides were dissolved in DMSO to reach a final concentration of 512 µM. A series of two-fold dilutions ranging from 512 µM to 1 µM were dosed in the 96-well plates.
(§3) Antimicrobial assays were conducted in 96-well plates, which were divided into five groups, including a negative control group (PBS), a positive control group (20 μg/mL norfloxacin for bacteria and 10 μg/mL amphotericin B for yeast), vehicle control (1% DMSO), blank control (MHB or YPD-B), and a peptide group. Each microorganism had five repetitions, and each well contained 1 µL corresponding solution and 99 µL culture. After incubation at 37 °C overnight, the absorbance of each well was tested by a microplate reader (EL808, Biolise BioTek Winooski, Minneapolis, USA) under a 550 nm wavelength. The MIC is the lowest concentration at which no bacterial growth can be observed.
(§4) The next day, 10 µL of every clear well was taken out to be cultured on a Mueller Hinton Agar (MHA) plate and incubated at 37 °C for 16–20 h. The MBC is the lowest concentration without any bacterial colonies, which means at this concentration, the peptide reduces the viability of the pathogen by more than 99.9%.

Test [2] concerns K. pneumoniae (ATCC 43816). It counts as cell-based, Klebsiella pneumoniae. The method, then: as §1, §2, §3, §4
For test [3], the system named is E. faecalis (NCTC 12493). The class given is cell-based, Enterococcus faecalis. The method, then: as §1, §2, §3, §4
The subject of test [4] is K. pneumoniae (ATCC 43816) biofilm. It counts as cell-based, Klebsiella pneumoniae. Particulars: ATCC 43816, 24 h. The method, then: The anti-biofilm activities of the peptides against S. aureus (ATCC 6538), MRSA (NCTC 12493), E. faecalis (NCTC 12493), E. coli (ATCC CRM 8739), K. pneumoniae (ATCC 43816), and P. aeruginosa (ATCC CRM 9027) were evaluated.
The bacteria were inoculated in a different medium (Gram-positive bacteria were in TSB and Gram-negative bacteria were in LB) overnight, and the subculture was conducted in the same medium. When the bacteria reached a specific density, 100 µL of the dilution was added to each well of the 96-well microplate. Then 1 µL of peptide at a series of concentrations, the same concentration in the antimicrobial assay, were added into the well together with the bacteria. The plates were put into a moist shaking incubator with a speed of 200 rpm, and the temperature was set at 37 ℃. After a 24-h incubation, the liquid in the wells was aspirated, and each was washed twice by 100 µL PBS. One hundred µL of methanol were added into each well to stabilise the biofilm. After air-drying, 100 µL crystal violet was used to dye the biofilm, and they were dissolved in the 100 µL glacial acidic acid after drying. The solutions were transferred to a new microplate, and the absorbance of each well was tested by a microplate reader (EL808, Biolise BioTek Winooski, Minneapolis, MN, USA) at 595 nm wavelength. MBIC was the minimum concentration of the peptide showing no biofilm formation.
The bacteria were inoculated in a different medium (Gram-positive bacteria were in TSB and Gram-negative bacteria were in LB) overnight, and the subculture was conducted in the same medium. When the bacteria reached a specific density, 100 µL of the dilution was added to each well of the 96-well microplates. The plates were put into a moist shaking incubator with a speed of 200 rpm and the temperature was 37 ℃. After a 24 h incubation, the liquid in the wells was aspirated and they were washed twice by 100 µL PBS of each well. The peptides with the same concentrations were diluted in the corresponding medium and 100 µL were added into each well. After a 24-h incubation, the liquid in the wells was aspirated and they were washed twice by 100 µL PBS. One hundred µL of methanol were added into the wells to stabilise the biofilms. After being air-dried, 100 µL crystal violet was used to dye the biofilm, and they were dissolved in the 100 µL glacial acidic acid after drying. The solutions were transferred to a new microplate, and the absorbance of each well was tested by a microplate reader (EL808, Biolise BioTek Winooski, Minneapolis, USA) at 595 nm wavelength.

The test system of test [5] is C. albicans (ATCC CRM 10231). The class given is cell-based, Candida albicans. The method, then:
as §1, §2, §3, §4

Regarding `CC[C@H](C)[C@H](NC(=O)[C@@H](NC(=O)CN)C(C)C)C(=O)N[C@H](C(=O)N[C@@H](CCCCN)C(=O)N[C@H](C(=O)N[C@@H](CC(C)C)C(N)=O)[C@@H](C)O)[C@@H](C)CC` [Peptide 7-tB2U-K] (H-GVIIKTL-NH2), the MBC in test [1], in test [2], in test [3] and in test [5] was >512 µM throughout. Moreover, the minimal inhibitory concentration (MIC) in test [1], in test [2], in test [3] and in test [5] was >512 µM in each case. Moreover, the MBEC in test [4] was >512 µM. Moreover, the MBIC in test [4] was >512 µM.
As for `CC[C@H](C)[C@H](NC(=O)[C@@H](NC(=O)CN)C(C)C)C(=O)N[C@H](C(=O)N[C@@H](CC(=O)O)C(=O)N[C@H](C(=O)N[C@@H](CC(C)C)C(=O)N[C@@H](CCCCN)C(=O)NCC(=O)N[C@@H](C)C(=O)N[C@@H](C)C(=O)N[C@@H](CCCCN)C(=O)N[C@H](C(=O)N[C@H](C(=O)N[C@@H](C)C(=O)N[C@@H](C)C(=O)N[C@@H](CCC(=O)O)C(=O)N[C@@H](CC(C)C)C(=O)N[C@@H](CC(C)C)C(N)=O)C(C)C)[C@@H](C)O)[C@@H](C)O)[C@@H](C)CC` [tB2U-α] (H-GVIIDTLKGAAKTVAAELL-NH2), the MBC in test [1], in test [2], in test [3] and in test [5] was >512 µM throughout. The MIC in test [1], in test [2], in test [3] and in test [5] was >512 µM each time. Moreover, in test [4], the MBEC was >512 µM. Moreover, in test [4], the MBIC is >512 µM.
`CC[C@H](C)[C@H](NC(=O)[C@@H](NC(=O)CN)C(C)C)C(=O)N[C@H](C(=O)N[C@@H](CCCCN)C(=O)N[C@@H](CCCCN)C(=O)N[C@@H](CC(C)C)C(=O)N[C@@H](CCCCN)C(=O)NCC(=O)N[C@@H](C)C(=O)N[C@@H](C)C(=O)N[C@@H](CCCCN)C(=O)N[C@@H](CCCCN)C(=O)N[C@H](C(=O)N[C@@H](C)C(=O)N[C@@H](C)C(=O)N[C@@H](CCCCN)C(=O)N[C@@H](CC(C)C)C(=O)N[C@@H](CC(C)C)C(N)=O)C(C)C)[C@@H](C)CC` [tB2U-6K] (H-GVIIKKLKGAAKKVAAKLL-NH2): the MBC in test [1] was 128 µM (≈ 249 µg/mL); in test [2], 32 µM (≈ 62.4 µg/mL); in test [3] it was 64 µM (≈ 125 µg/mL); in test [5], 256 µM (≈ 499 µg/mL). Besides, the MIC (commonly the least concentration at which growth counts as inhibited) amounted to 128 µM (≈ 249 µg/mL) in test [1], 32 µM (≈ 62.4 µg/mL) in test [2], 64 µM (≈ 125 µg/mL) in test [3] and 256 µM (≈ 499 µg/mL) in test [5]. The MBEC in test [4] is > 512 µM. In test [4], this compound showed an MBIC of 32 µM.
For the compound `CC[C@H](C)[C@H](NC(=O)[C@@H](NC(=O)CN)C(C)C)C(=O)N[C@H](C(=O)N[C@@H](CCCCN)C(=O)N[C@H](C(=O)N[C@@H](CC(C)C)C(=O)N[C@@H](CCCCN)C(=O)NCC(=O)N[C@@H](C)C(=O)N[C@@H](C)C(=O)N[C@@H](CCCCN)C(=O)N[C@H](C(=O)N[C@H](C(N)=O)C(C)C)[C@@H](C)O)[C@@H](C)O)[C@@H](C)CC` [Peptide 14-tB2U-K] (H-GVIIKTLKGAAKTV-NH2), the MBC in test [1], in test [2], in test [3] and in test [5] was >512 µM each time. Also, the MIC in test [1], in test [2], in test [3] and in test [5] was >512 µM in each case. Besides, the MBEC in test [4] was >512 µM. Moreover, the MBIC in test [4] was >512 µM.
For `CC[C@H](C)[C@H](NC(=O)[C@@H](NC(=O)CN)C(C)C)C(=O)N[C@H](C(=O)N[C@@H](CC(=O)O)C(=O)N[C@H](C(=O)N[C@@H](CC(C)C)C(=O)N[C@@H](CCCCN)C(=O)NCC(=O)N[C@@H](C)C(=O)N[C@@H](C)C(=O)N[C@@H](CCCCN)C(=O)N[C@H](C(=O)N[C@H](C(=O)N[C@@H](C)C(=O)N[C@@H](C)C(=O)N[C@@H](CCC(=O)O)C(=O)N[C@@H](CC(C)C)C(=O)N[C@@H](CC(C)C)C(=O)N[C@@H](CCCNC(=N)N)C(=O)N[C@@H](CCCCN)C(=O)N[C@@H](C)C(=O)N[C@@H](Cc1c[nH]cn1)C(N)=O)C(C)C)[C@@H](C)O)[C@@H](C)O)[C@@H](C)CC` [tB2U] (H-GVIIDTLKGAAKTVAAELLRKAH-NH2), the MBC in test [1] is >512 µM; in test [2], > 512 µM; in test [3], >512 µM; in test [5], >512 µM. In addition, the MIC in test [1] was >512 µM; in test [2], 512 µM (≈ 1220 µg/mL); in test [3], >512 µM; in test [5], >512 µM. The MBEC in test [4] was >512 µM. Moreover, the MBIC in test [4] is >512 µM.
In the case of `CC[C@H](C)[C@H](NC(=O)[C@@H](NC(=O)CN)C(C)C)C(=O)N[C@H](C(=O)N[C@@H](CCCCN)C(=O)N[C@H](C(=O)N[C@@H](CC(C)C)C(=O)N[C@@H](CCCCN)C(=O)NCC(=O)N[C@@H](C)C(=O)N[C@@H](C)C(=O)N[C@@H](CCCCN)C(=O)N[C@H](C(=O)N[C@H](C(=O)N[C@@H](C)C(=O)N[C@@H](C)C(=O)N[C@@H](CCCCN)C(=O)N[C@@H](CC(C)C)C(=O)N[C@@H](CC(C)C)C(N)=O)C(C)C)[C@@H](C)O)[C@@H](C)O)[C@@H](C)CC` [tB2U-K] (H-GVIIKTLKGAAKTVAAKLL-NH2), the MBC in test [1] was 128 µM (≈ 242 µg/mL); in test [2], 128 µM (≈ 242 µg/mL); in test [3] it was 32 µM (≈ 60.6 µg/mL); in test [5], 64 µM (≈ 121 µg/mL). Moreover, the MIC in test [1] is 128 µM (≈ 242 µg/mL); in test [2], 128 µM (≈ 242 µg/mL); in test [3], 32 µM (≈ 60.6 µg/mL); in test [5], 64 µM (≈ 121 µg/mL). Moreover, the MBEC in test [4] was > 512 µM. The compound also came in with an MBIC in test [4] of 128 µM.
